Source: publication PMC6698794, “Catalytic Knockdown of miR-21 by Artificial Ribonuclease: Biological Performance in Tumor Model” (Frontiers in Pharmacology, 2019)

Assays:
B16 cells = assay: In vitro invasiveness assay (xCELLigence, Matrigel-coated CIM-Plates); assay type: cell-based, mouse; details: 1 µM with Lipofectamine
Description: B16 cells were pre-seeded (2 × 10^5 per well of 24-well plates) in DMEM/10% FBS a day before transfection. Medium was replaced with serum-free DMEM, prior to incubation for 4 h with h-ODN, 2′-OMe, Inh (hsa-miR-21 5 p inhibitor, Ambion, USA), miR-21-miRNase, or luc-POC, each (0.1 or 1 µM) pre-complexed with Lipofectamine (Thermo Fisher Scientific, USA) in Opti-MEM medium (Thermo Fisher Scientific, USA) according to manufacturer’s instructions, then cells were cultivated in fresh culture standard medium for 24–72 h.
Real-time cell analysis (xCELLigence, ACEABiosciences, USA) used CIM-Plates held at 37°C under an atmosphere of 5% CO2. Top chamber wells were coated with Matrigel (20 µl per well, diluted 1:40 with cold serum-free DMEM) and allowed to polymerize (4 h at 37°C under 5% CO2) prior to cell seeding. Bottom chamber wells were filled with DMEM/10% FBS (160 µl each), prior to assembly of the chambers, when serum-free DMEM was added to the top wells (30 µl each) and equilibrated (1 h at 37°C under 5% CO2). At 4 h after transfection, B16 cells (4 × 10^4) were seeded into each top chamber well in serum-free DMEM and pre-incubated for 30 min at room temperature before monitoring (xCELLigence set to collect impedance data, reported as cell index at least once every 30 min).
Figure 2 Biological effect of the miR-21-specific miRNase. (A) Apoptotic profile of B16 melanoma cells after transfection with miR-21-miRNase and control luc-POC. Cytofluorimetric analysis of cells after staining with Annexin V-FITC/PI 48 h after transfection with miRNase or luc-POC (1 µM) in complex with Lipofectamine2000. Q1—population of living cells; Q2—Annexin V-FITC+/PI-, early apoptosis; Q3—Annexin V-FITC+/PI+, late apoptosis; Q4—Annexin V-FITC-/PI+, necrosis. (B) Average percentage of apoptotic (early and late apoptosis) and necrotic B16 cell population. Data represent mean ± s.e. of four independent experiments.(C, D) Invasion activity of B16 cells after incubation with Lipofectamine (LF) alone or treated with either hairpin antisense oligonucleotide (h-ODN), hairpin 2′-OMe oligonucleotide (2′-OMe), commercial miR-21 inhibitor (Inh), miR-21-miRNase, and control conjugate (luc-POC) in the concentration of 1 µM. Migration of cells was recorded in real time using the xCELLigence cell analysis system. Control—B16 cells without treatment. Data represent mean ± s.d. of four independent experiments.

miR-21 = assay: Cleavage of 5′-[32P]-labeled miR-21 by miR-21-miRNase and/or RNase H in multiple turnover conditions; assay type: biochemical; details: for Level of cleavage of miR-21 by miRNase alone: 5- or 10-fold excess of target; for Level of cleavage of miR-21 by miRNase alone / τ/2, half-life time of miR-21: miRNase 5 µM, 37°C
Description: Unlabeled miR-21 (10 µM, 25 µM, or 50 µM) and 10^5 cpm (Cherenkov’s counting) of [^32P]-miR-21 was incubated at 37°C with either miR-21-miRNase (5 µM) or RNase H (100 U/ml, plus 5 µM of either h-ODN or miR-21-miRNase) in buffer (20 mM Tris-HCl, pH 7.8, 40 mM KCl, 8 mM MgCl2, 1 mM DTT). Reactions were quenched by precipitation of RNA with 2% LiClO4 in acetone, and RNA cleavage products quantified in dried gels as described previously ([Patutina et al., 2017a]) using Molecular Imager FX and Quantity One software.
Figure 4 Cleavage of 5’-[^32P]-labeled miR-21 by miR-21-miRNase and/or RNase H. Autoradiographs of 18% polyacrylamide/8 M urea gel, showing the patterns of cleavage of miR-21 at its 2- (A), 5- (C), and 10-fold (E) molar excess over miR-21-miRNase or h-ODN. […] Duplexes formed by 5′-[^32P]-miR-21 (10, 25, and 50 µM) and h-ODN or miRNase (5 µM) were incubated at 37°C for 24–72 h. Lanes Im and T1: imidazole ladder and partial RNA digestion with RNase T1, respectively; “control”: RNA was incubated in the absence of oligonucleotide or conjugate and in the presence of RNase H (100 U/ml). Diagrams (B), (D), and (F) show time dependency of cleavage of miR-21 by miR-21-miRNase alone, by a synergetic action of miR-21-miRNase and RNase H, or by RNase H (100 U/ml) alone when miR-21 was in a complex with h-ODN at 2-, 5- and 10-fold molar excess of miR-21 over miR-21-miRNase or h-ODN, respectively. (G) Positions of miR-21 cleavage induced by miR-21-miRNase (red arrows), RNase H in the duplex with h-ODN (black arrows), and by combination of miR-21-miRNase and RNase H. (H) The hypothetical representation of miR-21 cleavage by a combination of miRNase and RNase H.

h-ODN: miR-21-targeted hairpin deoxyribooligonucleotide AGTCTGATAAGCTACAAGTCAGCGAAAGCTGACTTG, unconjugated with the peptide (DNA, backbone and methylation of C not given here; hairpin at 3' end, unconjugated)
Migration rate of transfected B16 cells (in words) (B16 cells; compared with Lipofectamine alone): almost the same rate as cells incubated with Lipofectamine
Total extent of miR-21 cleavage in heteroduplex with h-ODN by RNase H alone (miR-21; RNase H 100 U/ml, h-ODN 5 µM, 2-fold excess of miR-21, plateau by 30 min): 45%
Extent of miR-21 cleavage in heteroduplex with h-ODN by RNase H alone (miR-21; RNase H 100 U/ml, h-ODN 5 µM, 5-fold excess of miR-21): about 10%
Extent of miR-21 cleavage in heteroduplex with h-ODN by RNase H alone (miR-21; RNase H 100 U/ml, h-ODN 5 µM, 10-fold excess of miR-21): ~5%

acetyl-[(LeuArg)2Gly]2-aminohexyl-AGTCTGATAAGCTACAAGTCAGCGAAAGCTGACTTG [miR-21-miRNase, peptide acetyl-[(LeuArg)2Gly]2 conjugated through aminohexyl linker to 5′-end of miR-21-targeted hairpin oligodeoxyribonucleotide]
Inhibition of invasion of B16 cells relative to luc-POC (B16 cells; time point 40 h): about 70%
Inhibition of invasion of B16 cells relative to control (B16 cells; time point 40 h, four independent experiments): about 70%
Factor by which RNase H elevated cleavage of miR-21 (from τ/2) (miR-21; 2-fold excess of miR-21): 14.9 times
Factor by which RNase H enhanced the catalytic turnover (miR-21; 2-fold excess of miR-21): 15.6 times
Factor by which RNase H elevated cleavage of miR-21 (from τ/2) (miR-21; 5-fold excess of miR-21): 3.0 times
Factor by which RNase H enhanced the catalytic turnover (miR-21; 5-fold excess of miR-21): 7.0 times
Factor by which RNase H elevated cleavage of miR-21 (from τ/2) (miR-21; 10-fold excess of miR-21): 2.4 times
Factor by which RNase H enhanced the catalytic turnover (miR-21; 10-fold excess of miR-21): 4.6 times
Incubation time to complete (∼100%) RNA degradation (miR-21; miR-21-miRNase 5 µM with RNase H 100 U/ml, 2-fold excess of miR-21): 8 h
Incubation time to complete RNA degradation (miR-21; miR-21-miRNase 5 µM with RNase H 100 U/ml, 5-fold excess of miR-21): 24 h
Incubation time to complete RNA degradation (miR-21; miR-21-miRNase 5 µM with RNase H 100 U/ml, 10-fold excess of miR-21): ≤ 48 h
Level of cleavage of miR-21 by miRNase alone (miR-21; over 24 h, irrespective of 2-): 65–68%
Level of cleavage of miR-21 by miRNase alone (miR-21; over 72 h, 2-): 90%
τ/2, half-life time of miR-21 (miR-21; with RNase H 100 U/ml, miR-21 10 µM (2-fold RNA excess), pH 7.8): 0.7 ± 0.2 h
τ/2, half-life time of miR-21 (miR-21; with RNase H 100 U/ml, miR-21 25 µM (5-fold RNA excess), pH 7.8): 5.4 ± 0.4 h
τ/2, half-life time of miR-21 (miR-21; with RNase H 100 U/ml, miR-21 50 µM (10-fold RNA excess), pH 7.8): 4.7 ± 0.4 h
τ/2, half-life time of miR-21 (miR-21; without RNase H, miR-21 10 µM (2-fold RNA excess), Tris-HCl pH 7.8, 40 mM KCl, 8 mM MgCl2, 1 mM DTT, time for 50% cleavage): 10.4 ± 0.5 h
τ/2, half-life time of miR-21 (miR-21; without RNase H, miR-21 25 µM (5-fold RNA excess), pH 7.8): 16.2 ± 1.5 h
τ/2, half-life time of miR-21 (miR-21; without RNase H, miR-21 50 µM (10-fold RNA excess), pH 7.8): 11.04 ± 0.8 h
